Residue numbers refer to the chain shown, from its start. Bounds are passed on as bounds.

In data set [1] the test system is HIV-1 tat protein. It counts as binding. The conditions noted are these: 32P-labeled RNA transcript, 0 to 600 ng tat. The procedure:
i) Gel retardation assays (FIG. 6) Method RNA transcripts were prepared by transcription with either T3 or T7 RNA polymerases of TAR regions residues +1 to +57, cloned between the HindIII and EcoRI sites of the Bluescribe M13+expression vector (Stratagene). RNA transcripts corresponding to HIV-1 TAR [SEQ ID NO: 1], SSA [SEQ ID NO: 3], SAA and SAS [SEQ ID NO: 5] were synthesized from clones linearized with EcoRI and transcribed with T3 RNA polymerase. RNA transcripts corresponding to the antisense HIV-1 TAR […], AAS , ASS [SEQ ID NO: 4], and ASA (not shown) sequences were prepared from the same plasmids linearized with HindIII and transcribed using T7 RNA polymerase. All other RNA molecules were synthesized using T3 RNA polymerase following EcoRI cleavage of the plasmid vector. The RNA products each carry 13 nucleotides of vector sequence at their 5' end and four nucleotides at their 3' ends. […] Transcription mixtures contained 1 ug linearized plasmid, 40 mM Tris-HCl pH 8.0, 10 mM MgCl 2, 2 mM Spermidine-HCl, 50 mM NaCl, 100 uM each ribonucleotide triphosphate, 40 uCi (alpha-^32 P) UTP (410 Ci/m mol) and 10 units of RNA polymerase in a final volume of 30 ul and were incubated at 37° C. for 30 minutes. After phenol extraction and precipitation from ethanol the RNA was purified from a 9% polyacrylamide denaturing gel. The specific activity of the RNA product was determined and appropriate amounts were used in binding assays. Binding reaction mixtures (1 5ul) contained 1 ng of uniformly labeled RNA probe, 0.5 ug calf thymus DNA, 0.2 ug yeast TRNA, 40 units RNAsin (Promega), 50 mM Tris-HCl and 20 mM KCl and 0 to 600 ng tat protein, prepared from E. coli beta-galactosidase-tat fusion proteins, as described previously (6). After incubation at either 30° C. or 4° C. for 10-20 minutes, the reaction mixtures were applied to a 6% non-denaturing polyacrylamide gel (Acrylamide: Bis, 40:0.5) in 3.3 mM sodium acetate, 6.7 mM Tris (adjusted to pH 7.9 with HCl). The gel buffer was recirculated during electrophoresis at 35 mA for approximately 2 hours at room temperature. Gels were dried and exposed to X-ray film at -80° C. using intensifying screens.

Data set [2] concerns HIV-1 tat protein. The data set can be described thus: direct filter binding assay of tat to TAR RNA (saturation binding, Scatchard analysis). The conditions noted are these: direct filter binding; HIV-1 TAR from saturation binding/Scatchard plot, mutants estimated from half-maximal binding; read-out: Kd (dissociation constant of tat binding). The method, then:
The results shown graphically in FIG. 4 are from experiments in which binding reactions (500 ul) contained 40 nMolar^32 P uniformly radiolabelled TAR RNA at a specific activity of 100,000 Ci/mole; 0.5 ug calf thymus DNA; 0.2 ug yeast TRNA; 40 units RNAsin (Promega); 50mm Tris-HCl pH 7.9 and 20 mM KCl. Reaction mixtures were set up on ice and increasing amounts of HIV-1 tat protein were added and the reaction mixtures were filtered through prewashed nitrocellulose filters (Millipore 0.45 uM pore size). The filters were dried and counted by liquid scintillation counting. The fraction of radiolabeled RNA bound was plotted against HIV-1 tat concentration.
Binding was measured by a filter-binding assay as described below under "Method", using monomeric tat protein prepared by CNBr cleavage of a human growth hormone-tat fusion protein expressed in E. coli. Reactions for saturation binding contained labeled TAR RNA [SEQ ID NO: 1] or antisense TAR RNA [SEQ ID NO: 6] at 10 nm and between 0 to 300 nM purified tat protein. Antisense TAR RNA was used as a control, since antisense TAR is unable to form stable complexes with tat in gel-retardation assays (Dingwall et al., 1989).
The stoichiometry of the tat/TAR interaction was determined by varying the TAR RNA concentrations over a wide range, while keeping the tat protein concentration constant near the Kd. For this Scatchard analysis, the tat protein concentration was held constant at 40 nM and the RNA concentration was varied between 7nM and 320 nM. The total amount of labeled RNA was kept constant in the binding reactions, but the specific activity of the RNA was varied. […]
Tat protein was prepared either from beta-galactosidase-tat fusion proteins (6) or from human growth-hormone-tat fusion proteins (85) using an improved method. In brief, inclusion body pellets containing the fusion protein were solubilized in 7M GdHCl, 50 mM Tris-HCl pH8.0, 2 mM EDTA, 2mM DTT and the fusion protein was purified to near homogeneity by ion-exchange chromatography on Q-Sepharose and S-Sepharose (Pharmacia) in buffers containing […], 50 mM Tris-HCl pH8.0, 2mM EDTA, 2mM DTT. The cysteine residues were protected by disulphide-exchange with 20 mM 2-hydroxyethyldisulphide (86), and the protein was cleaved by cyanogen bromide (6). The basic tat protein was then separated from the acidic human growth hormone peptides by ion-exchange chromatography on Q-Sepharose and S-Sepharose in 6M Urea. The protecting groups were then removed from the protein by addition of 10 mM DTT and the protein refolded by stepwise dialysis against 6 m Urea, 5M Urea,3M Urea, 1M Urea and 0M Urea in a buffer containing 50 mM Tris-HCl pH8.0, 100 uM DTT, 10 uM ZnCl2 Tat protein refolded in this manner elutes as a monomer from Superose 12 columns (Pharmacia) and migrates as a single band on polyacrylamide gels. Protein prepared by both methods behaved comparably in binding assays.
A wide variety of parameters affecting the binding of tat protein to TAR RNA were studied and binding conditions were optimized. Binding of tat to TAR has a distinct pH optimum at pH 8.0, but good binding is observed between pH 7.5 and pH 8.5. Tat/TAR complexes are very sensitive to ionic strength. […] Addition of Zn^+2, Cd^+2, Ca^+2, Mg,^+2, Fe^+2 or Fe^+3 ions to the reaction mixtures […]. However, the binding reaction is sensitive to EDTA at greater than 0.1 mM EDTA. Complex formation is also somewhat temperature sensitive. Optimal binding is observed at 0°C. Between 15° C. and 30° C. there is a 30% reduction in complex formation. […]

In data set [3] the test system is tat-dependent promoter activity of viral LTR carrying the TAR sequence. The data set can be described thus: trans-activation CAT assay, HeLa cells cotransfected with LTR-CAT test plasmid and tat expression plasmid. It counts as cell-based. The conditions noted are these: HeLa cells cotransfected with tat plasmid. The source says:
If tat binding to TAR is necessary for trans-activation, then viral LTRs carrying TAR sequences with low affinities for tat should always have reduced tat-dependent promoter activity in vivo. Site-directed mutagenesis experiments on TAR have shown that trans-activation requires sequences in both the U-rich bulge (10, 11) and the loop sequence (12, 27, 28). These observations have now been extended, using TAR mutations with known affinities for tat in transfection experiments, the results of which are shown in FIG. 8. The experiments used either HeLa cells (FIG. 8a-d) or a constitutive producer of tat, HeLa/C63/tat cells (FIG. 8e-f).
The TAR sequences depicted in FIG. 3 [SEQ ID NO: 1-11] were introduced into a test plasmid, pD5-3-3, which carries a LTR and approximately 300 bases of 5' flanking sequences derived from the infectious proviral clone NL4 (29). The bacterial chloramphenicol acetyltransferase (CAT) gene and SV40 intron and terminator sequence from pSV2-CAT (30) was inserted downstream of TAR by cloning into the HindIII site at +77. Trans-activation was measured either by cotransfection of HeLa cells with the test plasmids and the tat expression plasmid pC63-4-1 (6) (panels a-d in […]), or by transfection of the test plasmids alone into HeLa/C63/tat (clone 9) cells (panels e-h). […]

The test system of data set [4] is HIV-1 tat protein. Nature of the data set: competition filter binding assay, mutant TAR transcripts against labelled HIV-1 TAR RNA (FIG. 7, Table 1). The conditions noted are these: 20 nM TAR RNA, 40 nM tat protein; for IC50: read-out: D1/2 (concentration of competitor RNA that reduces binding of HIV-1 tat to HIV-1 TAR RNA to 50%).
Description: Binding reactions (500 ul) were set up on ice and contained 80 pM ^32 P-labeled TAR RNA (17,600 dpm, 200 uCi/n mol) and unlabeled TAR RNA to give a final concentration of 20 nM, 0.5 ug calf thymus DNA, 0.2 ug yeast tRNA, 40 units RNAsin (Promega), 50 mM Tris HCl and 20 mM KCl. After addition of competitor RNA, binding was initiated by addition of HIV-1 tat protein to a final concentration of 400 ng/ml (40 nM). The binding reaction mixtures were then filtered under reduced pressure through pre-washed nitrocellulose filters (Millipore 0.45 uM pore size) and filters were dried and counted by liquid scintillation counting.
The fraction of^32 P-labeled TAR RNA bound was plotted against the final concentration of competitor RNA. In these experiments reactions included 20 nM TAR and 40 nM tat protein and increasing amounts of unlabeled competitor RNA from 40 nm to 6 uM. […] In theory, 40 nM tat will bind 50% of the input TAR RNA (D1/2) when the total TAR RNA concentration is 56 nM.
For competition experiments, binding reactions (500 ul) were set up on ice and contained 80 pM ^32 P-labeled TAR RNA (17,600 dpm, 200 uCi/n mol) and unlabeled TAR RNA to give a final concentration of 20 nM, 0.5 ug calf thymus DNA, 0.2 ug yeast TRNA, 40 units RNAsin (Promega), 50 mM Tris-HCl pH 7.9 and 20 mM KCl. After addition of 0 to 6 uM competitor RNA, binding was initiated by addition of HIV- 1 tat protein to a final concentration of 400 ng/mi (40 nM). The binding reaction mixtures were then filtered under reduced pressure through pre-washed nitrocellulose filters (Millipore 0.45 u pore size) and filters were dried and counted by liquid scintillation counting.
KRel is the ratio of the D1/2 values for HIV-1 TAR and competitor RNA.
For data set [5], the target named is T1, HIV-1 Tat (Human immunodeficiency virus 1, UniProt P04608 P04608:1-86). The data set can be described thus: competition; D1/2; unmodified 29-mer 60 nM; 29-mer probe. The conditions noted are these: hairpin with U-rich bulge.
Data set [6] has as its target T1, HIV-1 Tat. Nature of the data set: competition; D1/2; unmodified 18+15 duplex 65 nM. The conditions noted are these: duplex with bulge.
For data set [7], the target named is T1, HIV-1 Tat. Nature of the data set: filter; Scatchard 11.8 nM; 50 mM Tris-HCl, 20 mM KCl, on ice, calf thymus DNA and yeast tRNA present. The conditions noted are these: label: 32P; stem-loop with 3-nt U-rich bulge.
For data set [8], the target named is T1, HIV-1 Tat. The data set can be described thus: filter; UCU bulge indistinguishable from UUU. The conditions noted are these: stem-loop with bulge.
Data set [9] addresses T1, HIV-1 Tat. Nature of the data set: filter; D1/2 66 nM; complex in EMSA. The conditions noted are these: stem-loop with bulge. (Mobility shift assays separate free from complexed probe on a gel.)
Data set [10] has as its target T1, HIV-1 Tat. The data set can be described thus: filter; D1/2 76 nM; compensatory mutation restores binding. The conditions noted are these: stem-loop with bulge.

Regarding “Antisense: anti-sense sequence to HIV-1 BRU TAR (antisense GGGUUCCCUAGUUAGCCAGAGAGCUCCCAGGCUCAAAUCUGGUCUAACCAGAGAGACCC; chemistry not given here) [reference compound]”, the “complex formation with tat in gel retardation assay” value in data set [1] was “No complexes were formed”. Further, the Kd in data set [2] was more than 140 nM.
With “G28 to C28 ; C37 to G37: pair of TAR point mutations expected to have a normal TAR stem/loop structure (GGGUCUCUCUGGUUAGACCAGAUUUGACCCUGGGAGGUCUCUGGCUAACUAGGGAACCC; chemistry not given here)”, in [3], the “trans-activation phenotype” value is reported as “restored to wild-type levels”. Also, in [4], the “KRel (ratio of D1/2 values for HIV-1 TAR and competitor RNA)” value was determined as 0.84; the IC50 came to 76 nM. In addition, in [2], the Kd was 24 nM.
For the molecule “HIV-2 TAR: first stem-loop structure of HIV-2 ROD TAR RNA, bulge of two uridine residues (CUGCGGAGAGGCUGGCAGAUUGAGCCCUGGGAGGUUCUCUCCAGCACUAGCAG; RNA, backbone not given here) [reference compound]”, in data set [4], the “KRel (ratio of D1/2 values for HIV-1 TAR and competitor RNA)” value is on record as 0.40; the IC50 amounted to 160 nM. The “complex formation with tat in gel retardation assay” value in data set [1] was “discrete complex formation”. Also, in [2], the Kd is 30 nM.
GCCAGAUUUGAGCCUGGGAGCUCUCUGGC (ssRNA, 2'-OMe uridine at U23 (nt 7) [7 (2'-OMe uridine, U23)]) [29-mer 2'-OMeU-23] came in with an IC50 in data set [5] of 50 nM.

B1: 18+15 duplex 4-thioT-24 (dsRNA)
RNA 1: AGCCAGAUTUGAGCAGCU
RNA 2: AGCUGCUCUCUGGCU
modifications: 4-thio-2'-deoxythymidine at U24 (nt 9) [9 (strand 1, 4-thio-2'-deoxythymidine)]
The molecule B1 displayed an IC50 in data set [6] of 25 nM.

B2: 18+15 duplex 4-thioT-23 (dsRNA)
RNA 1: AGCCAGATUUGAGCAGCU
RNA 2: AGCUGCUCUCUGGCU
modifications: 4-thio-2'-deoxythymidine at U23 (nt 8) [8 (strand 1, 4-thio-2'-deoxythymidine)]
On to B2, for which, in data set [6], the IC50 was found to be 32 nM.
On to GCCAGAUUUGAGCCUGGGAGCUCUCUGGC (ssRNA, 2'-deoxyuridine at U23 (nt 7) [7 (2'-deoxyuridine, U23)]) [29-mer dU-23], for which, in [5], the IC50 came out at 55 nM.

B3: HIV-1 TAR RNA 59-mer (UUU bulge) (ssRNA)
RNA: GGGUCUCUCUGGUUAGACCAGAUUUGAGCCUGGGAGCUCUCUGGCUAACUAGGGAACCC
Regarding B3, the Kd in [7] amounted to 12 nM.

B4: HIV-1 TAR RNA (UCU bulge) (ssRNA)
RNA: B3 RNA with U24C
modifications: [24]
In the case of B4, the Kd in data set [8] was found to be 12 nM.

B5: TAR G to U (loop) (ssRNA)
RNA: B3 RNA with G32U, G33U, G34U
On to B5, for which, in data set [9], binding was put at a Kd of 25 nM.

B6: TAR G28 to C28; C37 to G37 (ssRNA)
RNA: B3 RNA with G28C, C37G
Molecule B6 registered a Kd in data set [10] of 24 nM.

As a reminder, the Kd is the concentration at which binding is half-saturated.

(Values after patent publication US5821046A, “RNA oligonucleotides that bind HIV tat protein” (RiboTargets Holdings PLC, priority 1990, dated 1998).)
